From patent US20230159510A1, “NOVEL PRMT5 INHIBITORS” (AMGEN INC., priority 2020, published 2023)
Read-outs that look alike come from different tables or passages of the source.

How the values were obtained:
HCT116 MTAP null cells = experiment: HCT116 proliferation assay, MTAP null cells (CellTiter-Glo, 6 days); format: cell-based; settings: read-out: Protif_ HCT116-MTAP null IC50
Experimental: (§1) HCT116 MTAP null and WT cells were seeded in 96-well tissue culture plates in RPMI 1640 media + 10% fetal bovine serum. Plates were incubated overnight at 37° C. and 5% CO2. Cells were then treated with a 8- or 9-point serial dilution of compound, using a top concentration of 1 or 10 µM, 1:3 serial dilution steps and, a DMSO-only control. Cells were incubated in the presence of drug for 6 days. Effects on cell viability were measured with the CellTiter-Glo® Luminescent Cell Viability Assay (Promega) per manufacturer’s recommendation. Assay plates were read on an EnVision™ Multilabel Reader using the Ultra-Sensitive luminescence module.

HCT116 WT cells = experiment: HCT116 proliferation assay, WT cells (CellTiter-Glo, 6 days); format: cell-based; settings: read-out: Prolif_HCT116-WT IC50
Experimental: as §1

| Compound | IC50 (HCT116 MTAP null cells; HCT116-MTAP null, 144 h) [nM] | IC50 (HCT116 WT cells; Homo sapiens, HCT-116, 144 h) [nM] | IC50 (HCT116 MTAP null cells; 144 h) [nM] | IC50 (HCT116 MTAP null cells) [nM] | IC50 (HCT116 WT cells) [nM] |
| --- | --- | --- | --- | --- | --- |
| CO[C@@H]1CCCC[C@H]1N(Cc1ccc(C(F)(F)F)cn1)C(=O)c1cnc2nc(N)c(Br)cc2c1 (racemic) [Example 798, 7-amino-6-bromo-N-((1R,2R)-2-methoxycyclohexyl)-N-((5-(trifluoromethyl)pyridin-2-yl)methyl)-1,8-naphthyridine-3-carboxamide] | 250 | 6960 |  |  |  |
| CC[C@H](c1ncccn1)N(Cc1ccc(C#N)cn1)C(=O)c1ccc2nc(N)c(I)cc2c1 [Example 760, (R)-2-amino-N-((5-cyanopyridin-2-yl)methyl)-3-iodo-N-(1-(pyrimidin-2-yl)propyl)quinoline-6-carboxamide] | 100 | 2930 |  |  |  |
| C[C@H](c1ncccn1)N(Cc1cc2c(cn1)OCCC2)C(=O)c1ccc2nc(N)c(I)cc2c1 (single isomer, unassigned) [Example 836] | 129 | > 10000 |  |  |  |
| Cc1cc2cc(C(=O)N(Cc3ccc(C(F)(F)F)cn3)CC(C)C)ccc2nc1N [Example 300, 2-amino-N-isobutyl-3-methyl-N-((5-(trifluoromethyl)pyridin-2-yl)methyl)quinoline-6-carboxamide] |  | 5300 | 317 |  |  |
| Cc1cc2cc(C(=O)N(Cc3ccc(C(F)(F)F)cn3)[C@@H]3CCOC[C@H]3F)ccc2nc1N (single isomer, unassigned) [Example 781] | 260 | 3400 |  |  |  |
| Cc1cc2cc(C(=O)N(Cc3ccc(C#N)nc3C)[C@H](C)c3ncccn3)ccc2nc1N (single isomer, unassigned) [Example 820] | 239 | 3550 |  |  |  |
| Nc1nc2ccc(C(=O)N(Cc3ccc(Br)nn3)[C@@H]3CCCn4ncnc43)cc2cc1Br [Example 758, (R)-2-amino-3-bromo-N-((6-bromopyridazin-3-yl)methyl)-N-(5,6,7,8-tetrahydro-[1,2,4]triazolo[1,5-a]pyridin-8-yl)quinoline-6-carboxamide] | 337 | > 10000 |  |  |  |
| Cc1cc2cc(C(=O)N(Cc3ccc(C(F)(F)F)cn3)[C@H](C)c3cccc(C#N)n3)ccc2nc1N (single isomer, unassigned) [Example 811] | 422 | > 10000 |  |  |  |
| Cc1cc2cc(C(=O)N(Cc3ccc(OC(F)(F)F)nn3)C(C)c3ncccn3)ccc2nc1N (stereo not drawn) [Example 791, 2-amino-3-methyl-N-(1-(pyrimidin-2-yl)ethyl)-N-((6-(trifluoromethoxy)pyridazin-3-yl)methyl)quinoline-6-carboxamide] | 60 | 1720 |  |  |  |
| C[C@H](c1ncccn1)N(Cc1ccc(C(F)(F)F)nn1)C(=O)c1cnc2nc(N)c(I)cc2c1 [Example 808, (R)-7-amino-6-iodo-N-(1-(pyrimidin-2-yl)ethyl)-N-((6-(trifluoromethyl)pyridazin-3-yl)methyl)-1,8-naphthyridine-3-carboxamide] | 454 | 19900 |  |  |  |
| Cc1cc2cc(C(=O)N(Cc3ccc(C(F)(F)F)cn3)Cc3ncccn3)c(F)cc2nc1N [Example 319, 2-amino-7-fluoro-3-methyl-N-(2-pyrimidinylmethyl)-N-((5-(trifluoromethyl)-2-pyridinyl)methyl)-6-quinolinecarboxamide] | 168 | 4230 |  |  |  |
| Cc1cc2cc(C(=O)N(Cc3ccc(OCC(F)(F)F)nn3)[C@H](C)c3ncccn3)ccc2nc1N [Example 790, (R)-2-amino-3-methyl-N-(1-(pyrimidin-2-yl)ethyl)-N-((6-(2,2,2-trifluoroethoxy)pyridazin-3-yl)methyl) quinoline-6-carboxamide] | 156 | 5160 |  |  |  |
| Cc1cc2cc(C(=O)N(CCc3ccon3)Cc3ccc(C(F)(F)F)cn3)ccc2nc1N [Example 585, 2-amino-N-(2-(isoxazol-3-yl)ethyl)-3-methyl-N-((5-(trifluoromethyl)pyridin-2-yl)methyl)quinoline-6-carboxamide] | 580 | 11000 |  |  |  |
| Cc1cc2cc(C(=O)N(Cc3ccc(C#N)c(C)n3)[C@H](C)c3ncccn3)ccc2nc1N [Example 750, 2-amino-N-((5-cyano-6-methyl-2-pyridinyl)methyl)-3-methyl-N-((1R)-1-(2-pyrimidinyl)ethyl)-6-quinolinecarboxamide] | 177 | 3140 |  |  |  |
| CO[C@@H]1CCOC[C@H]1N(Cc1ccc(C(F)(F)F)cn1)C(=O)c1ccc2nc(N)c(C)cc2c1 (racemic) [Example 833, 2-Amino-N-((3R,4R)-4-methoxytetrahydro-2H-pyran-3-yl)-3-methyl-N-((5-(trifluoromethyl)-2-pyridinyl)methyl)-6-quinolinecarboxamide and 2-amino-N-((3S,4S)-4-methoxytetrahydro-2H-pyran-3-yl)-3-methyl-N-((5-(trifluoromethyl)-2-pyridinyl)methyl)-6-quinolinecarboxamide] | 39 | 1190 |  |  |  |
| Cc1cc2cc(C(=O)N(Cc3ccc(Br)nn3)[C@@H]3CCCn4ncnc43)c(F)cc2nc1N [Example 757, (R)-2-amino-N-((6-bromopyridazin-3-yl)methyl)-7-fluoro-3-methyl-N-(5,6,7,8-tetrahydro-[1,2,4]triazolo[1,5-a]pyridin-8-yl)quinoline-6-carboxamide] | 313 | 8870 |  |  |  |
| N#CC1(CN(Cc2ccc(C(F)(F)F)cn2)C(=O)c2ccc3nc(N)c(Br)cc3c2)CC1 [Example 828, 2-amino-3-bromo-N-((1-cyanocyclopropyl)methyl)-N-((5-(trifluoromethyl)pyridin-2-yl)methyl)quinoline-6-carboxamide] | 910 | > 10000 |  |  |  |
| Cc1cc2cc(C(=O)N(Cc3cc4ccccc4cn3)C(C)c3ncccn3)ccc2nc1N (stereo not drawn) [Example 792, 2-amino-N-(isoquinolin-3-ylmethyl)-3-methyl-N-(1-(pyrimidin-2-yl)ethyl)quinoline-6-carboxamide] | 119 | 3840 |  |  |  |
| Cc1cc2cc(C(=O)N(Cc3ncccc3Cl)[C@H](C)c3ncccn3)c(F)cc2nc1N (single isomer, unassigned) [Example 784] | 261 | 4700 |  |  |  |
| COC[C@H](C1CC1)N(Cc1ccc(C(F)(F)F)cn1)C(=O)c1ccc2nc(N)c(C)cc2c1 (single isomer, unassigned) [Example 810] | 594 | 5400 |  |  |  |
| Cc1cc2cc(C(=O)N(Cc3ccc(C(F)(F)F)cn3)[C@@H]3CCC[C@H]3C#N)ccc2nc1N (single isomer, unassigned) [Example 812] | 43 | 1040 |  |  |  |
| Cc1cc2cc(C(=O)N(Cc3ncccc3F)[C@H]3COc4cc(C(F)(F)F)ccc43)ccc2nc1N (single isomer, unassigned) [Example 524] | 135 | 2350 |  |  |  |
| Cc1cc2cc(C(=O)N(Cc3ccc(C(F)(F)F)cn3)Cc3ncoc3C)ccc2nc1N [Example 579, 2-amino-3-methyl-N-[(5-methyloxazol-4-yl)methyl]-N-[[5-(trifluoromethyl)-2-pyridyl]methyl]quinoline-6-carboxamide] | 95 | > 1000 |  |  |  |
| 2-amino-N-((1S,2S)-2-methoxy-2,3-dihydro-1H-inden-1-yl)-3-methyl-N-((5-(trifluoromethyl)-2-pyridinyl)methyl)-6-quinolinecarboxamide [Example 753] |  |  |  | 408 | > 10000 |
| Cc1cc2cc(C(=O)N(Cc3ccc(C(F)(F)F)cn3)[C@@H]3COCC[C@H]3F)ccc2nc1N (mixture of isomers) [Example 749, 2-amino-N-((3R,4R)-4-fluorotetrahydro-2H-pyran-3-yl)-3-methyl-N-((5-(trifluoromethyl)-2-pyridinyl)methyl)-6-quinolinecarboxamide and 2-amino-N-((3S,4S)-4-fluorotetrahydro-2H-pyran-3-yl)-3-methyl-N-((5-(trifluoromethyl)-2-pyridinyl)methyl)-6-quinolinecarboxamide] | 95 | 2150 |  |  |  |
| CO[C@@H]1COCC[C@H]1N(Cc1ccc(C(F)(F)F)cn1)C(=O)c1ccc2nc(N)c(Br)cc2c1 [Example 829, 2-amino-3-bromo-N-((3S,4R)-3-methoxytetrahydro-2H-pyran-4-yl)-N-((5-(trifluoromethyl)pyridin-2-yl)methyl) quinoline-6-carboxamide] | 840 | > 10000 |  |  |  |
| Cc1cc2cc(C(=O)N(Cc3ccc(C(F)(F)F)cn3)[C@H](C)c3ncccn3)ccc2nc1N [Example 503, 2-amino-3-methyl-N-((1R)-1-(2-pyrimidinyl)ethyl)-N-((5-(trifluoromethyl)-2-pyridinyl)methyl)-6-quinolinecarboxamide] |  | 680 | 26 |  |  |
| Cc1cc2cc(C(=O)N(Cc3ccc(C(F)(F)F)cn3)Cc3ncccc3F)c(Cl)cc2nc1N [Example 804, 2-amino-7-chloro-N-((3-fluoro-2-pyridinyl)methyl)-3-methyl-N-((5-(trifluoromethyl)-2-pyridinyl)methyl)-6-quinolinecarboxamide] | 226 | 5770 |  |  |  |
| COc1ccc(CN(C(=O)c2ccc3nc(N)c(C)cc3c2)[C@H](C)c2ncccn2)cn1 (single isomer, unassigned) [Example 786] | 322 | > 10000 |  |  |  |
| Cc1cc2cc(C(=O)N(Cc3ccc(N4CCOCC4)cn3)[C@H](C)c3ncccn3)ccc2nc1N [Example 764, (R)-2-amino-3-methyl-N-((5-morpholinopyridin-2-yl)methyl)-N-(1-(pyrimidin-2-yl)ethyl)quinoline-6-carboxamide] | 287 | 4220 |  |  |  |
